From PMC8634379, “From the Design to the In Vivo Evaluation of Benzohomoadamantane-Derived Soluble Epoxide Hydrolase Inhibitors for the Treatment of Acute Pancreatitis” (Journal of Medicinal Chemistry, 2021)

Test system: cerulein-induced acute pancreatitis
Assay: In vivo efficacy, cerulein-induced acute pancreatitis murine model
Set-up: species or system C57BL/6 male mice
Text: Forty-one male C57BL/6 mice (8-week-old; approximately 24 g) were supplied by Envigo (Barcelona, Spain) (Ref 16512). During the experimental procedure, the animals were identified with a permanent marker (tail code numbers). Upon arrival, the animals were housed in groups of 8–9 animals/cage in polysulfone maintenance cages (480 × 265 × 210 mm, with a surface area of 940 cm^2) with wire tops and wood chip bedding. The animals were kept in an environmentally controlled room (ventilation, temperature 22 ± 2 °C, and humidity 35–65%) on a 12 h light/dark cycle. They underwent a period of 7 days of acclimatization between the date of arrival and the start of the procedure. […] The maintenance diet was supplied by Harlan Interfauna Ibérica S.L. (2018 Harlan Teklad Global Diets). Diet was provided to the animals ad libitum, but they were fasted overnight before the first cerulein injection, and food was replaced after the last cerulein injection. Tap water was supplied by CASSA (Servei d’Aigües de Sabadell) ad libitum. The animals were maintained in accordance with the European Directive for the Protection of Vertebrate Animals Used for Experimental and other Scientific Purposes (86/609/EU). Decree 214/1997 of 30th July. Ministry of agriculture, livestock and fishing of the Autonomous Government of Catalonia, Spain. Royal Decree 53/2013 of 1st February (Spain). All the experimental procedures were approved by the Ethical Committee on human and animal experimentation (CEEAH) of Universitat Autònoma de Barcelona (UAB) (procedure number: 4107) and by the Animal Experimentation Commission of the Generalitat de Catalunya (Catalan Government) (DAAM: 10146). The test item was dissolved in vehicle 10% 2-hydroxypropyl-β-cyclodextrin (CAS 128446-35-5) Sigma-Aldrich (Ref 332607). The vehicle was prepared the day before and kept at 4 °C. Pancreatitis induction: Mice (n = 41) were weighed, identified by a distinct number at the base of the tail, and fasted overnight. Cerulein (cerulein and cerulein + 22 groups) (50 μg/kg, prepared in 0.9% NaCl) or vehicle (0.9% NaCl) (control group) were intraperitoneally injected (V = 5 mL/kg) 12 consecutive times, at 1 h intervals (h = 0–11). Food was replaced after the last injection. A satellite experiment was designed where animals (n = 3) were distributed in control, cerulein, and cerulein + 22-treated groups. Pancreatitis was induced by seven injections of cerulein (or vehicle in the control group) at 1 h intervals (h = 0–6). Treatments: the test item was administered intraperitoneally in one injection to 22_03 (0.3 mg/kg) and 22_01 (0.1 mg/kg) groups at 14 h after the first cerulein injection. Animals from the control and cerulein groups received vehicle administration (10% 2-hydroxypropyl-β-cyclodextrin) (V = 10 mL/kg). Extra groups were treated 2 h after the first cerulein injection: 22 (0.3 mg/kg), control, and cerulein groups (10% 2-hydroxypropyl-β-cyclodextrin). Study end: 24 h after the first cerulein injection, animals were weighed and anesthetized with isoflurane. Blood was collected from the vena cava in an Eppendorf containing K2-EDTA and centrifuged at 10,000 rpm for 5 min for plasma collection. Plasma was stored at −80 °C until analysis. The mice were sacrificed by cervical dislocation and the pancreases were dissected and weighed. Pancreases from three animals were frozen in liquid N2 and stored at −80 °C until analysis. Pancreases from five mice were sectioned and one part was placed in 10% formalin and sent to Anapath (Granada, Spain) for histology analysis and the other was immediately placed in RNAse-free eppendorfs, frozen in N2, and stored at −80 °C for gene expression assays.
Pancreatic samples were treated with increasing grade alcohols and two xylol baths and embedded in paraffin. They were subsequently cut using a microtome and processed for staining. […]

[1] = Cerulein + 22 (0.3 mg/Kg), samples 1-5, score 0 (no changes) to 4 (very serious)

Structure (SMILES): O=C(NC12CC3CC(Cl)(CC(C1)c1ccccc13)C2)N[C@H]1CC[C@H](Oc2ccc(C(=O)O)cc2)CC1 [Compound 22, 4-[((1r,4r)-4-(3-(9-Chloro-5,6,8,9,10,11-hexahydro-7H-5,9:7,11-dimethanobenzo[9]annulen-7-yl)ureido)cyclohexyl)oxy]benzoic Acid]
- body weight change at the end of the study (22 0.1 mg/kg IP single dose, did not reach statistical significance): increased body weight
- body weight change at the end of the study (22 0.3 mg/kg IP single dose, p < 0.01 vs Cerulein group): increased body weight
- histologic score: Hemorrhage (Cerulein + 22 (0.1 mg/Kg), samples 1-5, score 0 (no changes) to 4 (very serious)): 0
- histologic score: Hemorrhage [1]: 0
- histologic score: Mononuclear inflammatory cells [1]: 0
- histologic score: Necrosis [1]: 0
- histologic analysis of pancreas, effect on cerulein-induced damage (both doses (0.1 and 0.3 mg/kg)): ameliorated cerulein-induced effects
- histologic analysis of pancreas, effect on cerulein-induced damage (higher dose (0.3 mg/kg)): more efficiently reversed the pancreatic damage, edema, and neutrophil infiltration
